Data on 21 compounds can be found in ChEMBL document CHEMBL5052848, “Atf6 modulators and uses thereof” (2021).

Assay type in all cases: cell-based
For assay [1], the system named is U2OS. The assay can be described thus: Modulation of ATF6 activity in human U2OS cells at 1 uM in presence of ER stress inducer thapsigargin (Tg) measured by TRE-luciferase reporter assay relative to control. Background: In a reporter assay the amount or activity of a reporter protein is the signal.
For assay [2], the system named is U2OS. Put plainly: Modulation of ATF6 activity in human U2OS cells at 10 uM in presence of ER stress inducer thapsigargin (Tg) measured by TRE-luciferase reporter assay relative to control.
Assay [3] deals with U2OS. Put plainly: Modulation of ATF6 activity in human U2OS cells at 1 uM measured by TRE-luciferase reporter assay relative to control.
Assay [4] concerns U2OS. The assay can be described thus: Modulation of ATF6 activity in human U2OS cells at 10 uM measured by TRE-luciferase reporter assay relative to control.

Consider `CC(c1c(Cl)cccc1Cl)n1cc(NC(=O)c2cc(-c3cccs3)on2)cn1` (stereo unspecified), for which the Activity in the assay on U2OS [1] was 75%; in the assay on U2OS [2] (filed as activator), 100%; with U2OS [3] it was 0%; in the assay with U2OS [4] it was 0%.

As for `CC(c1ccc(C(F)(F)F)cc1C(F)(F)F)n1cc(NC(=O)c2cc(-c3cnccn3)no2)cn1` (stereo in doubt; 1-26), the Activity in the assay with U2OS [1] and in the assay on U2OS [2] was less than 50% throughout.

Regarding `Cc1c(NC(=O)c2cc(-c3ccco3)on2)cnn1C(C)c1c(F)cccc1Cl` (stereo unspecified), the Activity with U2OS [1] is 75%; with U2OS [2] (filed as activator), 100%; with U2OS [3], 0%; in the assay with U2OS [4], 0%.

On to `CC(c1c(Cl)cccc1Cl)n1cc(NC(=O)c2cc(-c3ccco3)on2)cn1` (single isomer, unassigned), for which the Activity in the assay with U2OS [1] (filed as activator) amounted to 125%; with U2OS [2] (filed as activator) it was 100%.

With `CC(c1c(F)cccc1Cl)n1cc(NC(=O)c2cc(-c3ccco3)on2)cn1` (stereo in doubt; 1-4), the Activity in the assay on U2OS [1] (filed as activator) and in the assay with U2OS [2] (filed as activator) was greater than 150% each time.

On to `O=C(Nc1cnn(C2CCc3cc(Cl)ccc32)c1)c1cc(-c2ccco2)on1` (single isomer, unassigned; enantiomer B), for which the Activity with U2OS [1] and with U2OS [2] was 75% each time.

Take `CC(c1ccc(F)cc1F)n1cc(NC(=O)c2cc(-c3ccco3)on2)cn1` (stereo in doubt; 1-16): the Activity in the assay on U2OS [1] (filed as activator) worked out at 100%; with U2OS [2] (filed as activator), 125%; with U2OS [3], 0%; in the assay on U2OS [4] it was 0%.

In the case of `CC(c1ccc(F)cc1F)n1cc(NC(=O)c2cc(-c3ccco3)on2)cn1` (stereo in doubt; 1-17), the Activity with U2OS [1] (filed as activator) is 100%; with U2OS [2] (filed as activator), 100%; in the assay on U2OS [3] it was 0%; in the assay on U2OS [4] it was 0%.

In the case of `CC(c1ccc(C(F)(F)F)cc1C(F)(F)F)n1cc(NC(=O)c2cc(-c3cnccn3)no2)cn1` (stereo in doubt; 1-25), the Activity in the assay on U2OS [1] and in the assay with U2OS [2] was 75% each time.

With `CC(c1ccc(F)cc1F)n1cc(NC(=O)c2cc(-c3ccco3)on2)cn1` (stereo in doubt; 1-5), the Activity with U2OS [1] (filed as activator) was 100%; in the assay on U2OS [2] (filed as activator), greater than 150%.

For `O=C(Nc1cnn(C2CCCc3ccccc32)c1)c1cc(-c2ccco2)on1` (stereo unspecified), the results for the Activity in the assay on U2OS [1] (filed as activator) and in the assay with U2OS [2] (filed as activator) were 100% and 125%, respectively.

`O=C(Nc1cnn(Cc2ccc(C(F)(F)F)cc2)c1)c1cc(-c2ccco2)on1`: the Activity was 100% in the assay on U2OS [1] (filed as activator) and 75% in the assay on U2OS [2].

Consider `CC(c1c(F)cccc1Cl)n1cc(NC(=O)c2cc(-c3ccco3)on2)cn1` (stereo in doubt; 1-15), for which the Activity in the assay with U2OS [1] (filed as activator) worked out at 100%; in the assay on U2OS [2] (filed as activator), 100%; with U2OS [3], 0%; with U2OS [4] it was 0%.

Turning to `O=C(Nc1cnn(Cc2ccc(C(F)(F)F)cc2C(F)(F)F)c1)c1cc(-c2ccco2)on1`, the Activity in the assay with U2OS [1] and in the assay with U2OS [2] was less than 50% in each case.

Consider `O=C(Nc1cnn(C2CCc3cc(Cl)ccc32)c1)c1cc(-c2ccco2)on1` (single isomer, unassigned; enantiomer A), for which the Activity was 75% in the assay with U2OS [1] and less than 50% with U2OS [2].

For the compound `CC(c1c(Cl)cccc1Cl)n1cc(NC(=O)c2cc(-c3ccco3)on2)cn1` (stereo unspecified), the Activity in the assay on U2OS [1] (filed as activator) is greater than 150%; with U2OS [2] (filed as activator), greater than 150%; with U2OS [3] it was 0%; with U2OS [4], 0%.

As for `O=C(Nc1cnn(C2CCc3cc(C(F)(F)F)ccc32)c1)c1cc(-c2cnccn2)on1` (stereo unspecified), the Activity in the assay on U2OS [1] and in the assay with U2OS [2] was 75% in each case.

For the compound `CC(c1ccc(C(F)(F)F)cc1C(F)(F)F)n1cc(NC(=O)c2cc(-c3cnccn3)no2)cn1` (stereo in doubt; 1-11), the Activity in the assay on U2OS [1] is 50%; in the assay with U2OS [2], less than 50%.

`CC(c1c(F)cccc1Cl)n1cc(NC(=O)c2cc(-c3ccco3)on2)cn1` (stereo in doubt; 1-14): the Activity in the assay with U2OS [1] (filed as activator) was greater than 150%; in the assay with U2OS [2] (filed as activator), greater than 150%; in the assay on U2OS [3], 0%; in the assay with U2OS [4], 0%.

For `O=C(Nc1cnn(Cc2ccccc2)c1)c1cc(-c2ccco2)on1`, the Activity in the assay with U2OS [1] (filed as activator) was determined as 100%; in the assay on U2OS [2] (filed as activator), 125%.

`CC(c1ccc(F)cc1Cl)n1cc(NC(=O)c2cc(-c3ccco3)on2)cn1` (stereo unspecified): the Activity in the assay on U2OS [1] (filed as activator) worked out at 100%; in the assay with U2OS [2], 75%.
